Reference: US20090239898A1 (SCIENCOM LTD., priority 2003, published 2009)

Legend:
[1] = test system: semi-comatose patient; settings: reverts when drug action subsides; cited from earlier work
[2] = test system: abnormal baboon; settings: cited from earlier work
[3] = test system: patient with Ramsay-Hunt syndrome; test: Zolpidem therapy of Ramsay-Hunt syndrome (Example 3); format: in vivo, human
Source text: On treatment, the following features improved. […] Also, as part of the syndrome they could not close their left eye. After zolpidem they could.

[4] = test system: patients with Spinocerebellar Ataxia Type 2; test: Clinical response to zolpidem in a family with Spinocerebellar Ataxia Type 2 (Example 2); format: in vivo, human
Source text: There is currently no effective pharmacologic treatment for spinocerebellar ataxia. […] Spinocerebellar Ataxia Type 2 was confirmed by molecular analysis.

[5] = test system: patient after subarachnoid haemorrhage; test: Hearing and speech evaluation before and after zolpidem after subarachnoid haemorrhage (Example 4); format: in vivo, human
Experimental: The patient was then examined for any changes in hearing. […] The patient was also evaluated by the speech therapist before and after zolpidem.

[6] = test system: patient who had suffered a stroke; test: Clinical observation after zolpidem in a stroke patient (Example 1); format: in vivo, human; settings: 10 mg zolpidem
Source text: They had suffered a stroke several years before and presented with left-sided paraplegia since the onset of their stroke. Their cognition was still normal but they had some aphasia and decreased proprioseption that was evident from their inability to use scissors with their right hand. The clinical and neurological features of the patient were unremarkable apart from the above.

[7] = test system: Parkinson's disease; settings: in vivo; cited from earlier work
[8] = test system: patient after subarachnoid haemorrhage; test: Brain SPECT before and after zolpidem after subarachnoid haemorrhage (Example 4); format: in vivo, human; settings: 1 hour after 10 mg zolpidem

CN1C(=O)CN=C(c2ccccc2)c2cc(Cl)ccc21 [diazepam]
state of consciousness after drug application [1]: not awakened

CCOC(=O)c1ncn2c1CN(C)C(=O)c1cc(F)ccc1-2 [flumazenil]
effect on zolpidem-induced asymmetric perfusion pattern ([2]; abnormal baboon): attenuates the influence of zolpidem

Cc1ccc(-c2nc3ccc(C)cn3c2CC(=O)N(C)C)cc1 [zolpidem]
closing of left eye ([3]; after zolpidem): they could
drinking fluids ([3]; on zolpidem treatment): able to drink fluids directly from a cup
tonus of facial nerves ([3]; on zolpidem treatment): improved
state of consciousness after drug application [1]: exits their permanent vegetative state
time to clinical improvement ([4]; 10 mg zolpidem): ≤ 1 h
patients improved clinically ([4]; family of five patients, 10 mg zolpidem): four
ataxia, intention tremor and titubation ([4]; patient P1): improved moderately
ataxia, intention tremor and titubation ([4]; patient P2): improved
ataxia, intention tremor and titubation ([4]; patient P3): improved moderately
clinical improvement ([4]; patient P4): no improvement
ataxia, intention tremor and titubation ([4]; patient P5): slightly improved
hearing (pre and post-zolpidem audiograms) ([5]; after 10 mg zolpidem): improved
sleepiness ([5]; after 10 mg zolpidem): slightly sleepy
speech ability ([5]; after 10 mg zolpidem): improved markedly
persistence of hearing and speech improvements ([5]; even after halving the zolpidem dose): remained for the duration of drug action
clinical changes after zolpidem [6]: no marked clinical changes
ability to use scissors ([6]; for the next few hours until drug action subsided): able to use scissors
obsessive-compulsive symptoms (cessation of verbal iterations) [7]: improved
symptoms of PD (akinesia and rigidity) [7]: improved
defect in the right parietal aspect of the brain [8]: remained unchanged
brain perfusion ([2]; brain-abnormal baboon): asymmetric increased perfusion
